In patent US20040242524A1, “Chemotherapeutic composition and method” (priority 1998, published 2004):
Converted amounts (≈) assume the structure as drawn. “And” between values parts separate entries of the source, which are not always exact repeats. Equal entries are not always repeated. Where two headings read alike, the source gives them in different places.

Tests used:
[1] = tested on: B-16 melanoma cells; assay: Inhibition of B-16 melanoma cell proliferation by chemotherapeutic agents ± MCC (MTT reduction); type: cell-based, murine; details: for IC50: B16; for inhibited proliferation: 72 h, MTT
Description: B-16 melanoma cells, at 3×10^5 cells/ml, were incubated for 72 h with the chemotherapeutic agents mitomycin-C, 5-fluorouracil and cisplatin in the absence and in the presence of MCC. Cell proliferation was determined using dimethylthiazol-diphenyltetrazolium bromide (MTT) reduction (Mosman et al. Journal of Immunological Methods 65:55-63, 1983). After 72 h, 20 μl of MTT in culture medium was added to each well and incubated for 3 h. Medium was then aspirated from each well, 100 μl of acidified isopropyl alcohol was added to each sample and reduced MTT was solubilized by mixing. The absorbency of the reaction product was determined using an ELISA microplate reader at a wavelength of 570 nm.
B-16 melanoma cells were incubated with 0.01 to 100 μg/ml of mitomycin-C, with 1 to 100 μg/ml of MCC and with 0.01 to 10 μg/ml of mitomycin-C+1 μg/ml MCC. Mitomycin-C is an anti-tumor antibiotic produced by Streptomyces caespitosus, which cross-links DNA, depolymerizes DNA and forms free radicals.
B-16 melanoma cells were incubated with 0.01 to 100 μg/ml of 5-fluorouracil, with 1 to 100 μg/ml of MCC and with 0.01 to 10 μg/ml of 5-fluorouracil+1 μg/ml MCC. 5-fluorouracil is an antimetabolite, which interferes with DNA and RNA synthesis.
B-16 melanoma cells were incubated with 0.01 to 100 μg/ml of cisplatin, with 1 to 100 μg/ml of MCC and with 0.01 to 10 μg/ml of cisplatin+1 μg/ml MCC. Cisplatin is an alkylating agent that cross-links DNA and inhibits DNA precursors.

[2] = tested on: Jurkat T cell leukemia cells; assay: Cell cycle analysis, synchronously dividing (MTX) Jurkat cells; type: cell-based, human; details: MTX alone (0.08 μM)
Description: (§1) Cell cycle stage was determined using a CYCLETEST™ PLUS DNA commercial kit (Becton Dickinson, San Jose, Calif., USA). Briefly, nuclei from treated cells were obtained by dissolving the cell membrane in a nonionic detergent, eliminating the cell cytoskeleton and nuclear proteins with trypsin, digesting the cellular RNA with RNase, and stabilizing the nuclear chromatin with spermine. Propidium iodide was added to the cell nuclei and their fluorescence was analyzed in a flow cytometer equipped with electronic doublet discrimination capability (FACSCalibur, Becton Dickinson). Accumulation of cells in GO/G1, S (SE, SM, SL) or G2/M phases of the cell cycle was analyzed using MODFIT LT software (Verity Software House Inc., Topsham, Mass., USA). Results are expressed as percentage of cells in each phase of the cell cycle.
(§2) To synchronize cell populations, exponentially growing cells were incubated in tissue culture medium containing 0.04 to 0.16 μM methotrexate (MTX) for 20 hours. The MTX medium was removed, cells were washed extensively with phosphate buffered saline (PBS), fresh medium was added, incubation was continued for 8 hours and cell cycle analysis was performed as in Example 4.
(§3) Exponentially growing Jurkat, HL-60, HL-60MX1 and EL-4 cells, at 1×10^6 cells/ml, and B-16 cells, at 3×10^5 cells/ml, were prepared for analysis as in Example 5 with 0, 10 and 100 μg/ml of MCC in the MTX medium.
Exponentially growing Jurkat leukemia cells, at 1×10^6 cells/ml, were prepared for analysis as in Example 5 with 0 and 10 μg/ml of MCC and 10 μg/ml DNase I-treated MCC in the MTX medium.

[3] = tested on: EL-4 lymphoma cells; assay: Cell cycle analysis, synchronously dividing (MTX) EL-4 cells; type: cell-based, murine; details: MTX alone (0.16 μM)
Description: as §1, §2, §3

[4] = tested on: B-16 melanoma cells; assay: Cell cycle analysis, synchronously dividing (MTX) B-16 cells; type: cell-based, murine; details: MTX alone
Description: as §1, §2, §3

[5] = tested on: promyelocytic HL60 leukemia cells (HL-60); assay: Cell cycle analysis, synchronously dividing (MTX) HL-60 cells; type: cell-based, human; details: MTX alone (0.04 μM)
Description: as §1, §2, §3

[6] = tested on: mitoxantrone resistant promyelocytic HL-60MX1 leukemia cells; assay: Cell cycle analysis, synchronously dividing (MTX) HL-60MX1 cells; type: cell-based, human; details: MTX alone (0.04 μM)
Description: as §1, §2, §3

[7] = tested on: B-16 melanoma tumors; assay: Effects of M-DNA and MCC in combination with mitomycin-C on B-16 melanoma tumors in mice; type: in vivo; details: nude BALB/c mice, subcutaneous B-16, after 4 weeks of treatment; Group 1 saline, Group 4 mitomycin-C
Description: B-16 melanoma cells are implanted subcutaneously into 30 male nude BALB/c mice and allowed to grow for 10 days. The mice are divided into 6 groups and tumor mass is measured in each mouse. On day 0, Group 1 mice receive saline, Group 2 mice receive M-DNA, Group 3 mice receive MCC, Group 4 mice receive mitomycin-C, Group 5 mice receive M-DNA and mitomycin-C and Group 6 mice receive MCC and mitomycin-C. After 4 weeks of treatment, the mice are sacrificed and the tumor mass and number of metastases are determined. Group 1 mice have the most tumor mass.

[8] = 0.1 μg/ml, in the presence of 1 μg/ml MCC
[9] = 1 μg/ml, in the presence of 1 μg/ml MCC

O=c1[nH]cc(F)c(=O)[nH]1 [5-fluorouracil]
inhibition at 0.01 µg/mL ([1]; Mus musculus, B16, 72 h, read-out: inhibited proliferation, 0.01 μg/ml, agent alone, 72 h, MTT): ~8%
inhibition at 0.01 µg/mL ([1]; Mus musculus, B16, 72 h, read-out: inhibited proliferation, 0.01 μg/ml, in the presence of 1 μg/ml MCC, 72 h, MTT): ~75%
inhibition at 0.1 µg/mL ([1]; Mus musculus, B16, 72 h, read-out: inhibited proliferation, 0.1 μg/ml, agent alone, 72 h, MTT): ~50%
inhibition at 0.1 µg/mL ([1]; Mus musculus, B16, 72 h, read-out: inhibited proliferation, 0.1 μg/ml, in the presence of 1 μg/ml MCC, 72 h, MTT): ~85%
inhibition at 1 µg/mL ([1]; Mus musculus, B16, 72 h, read-out: inhibited proliferation, 1 μg/ml, agent alone, 72 h, MTT): ~90%
inhibition at 1 µg/mL ([1]; Mus musculus, B16, 72 h, read-out: inhibited proliferation, 1 μg/ml, in the presence of 1 μg/ml MCC, 72 h, MTT): ~90%
inhibition at 10 µg/mL ([1]; Mus musculus, B16, 72 h, read-out: inhibited proliferation, 10 μg/ml, agent alone, 72 h, MTT): 100%
inhibition at 10 µg/mL ([1]; Mus musculus, B16, 72 h, read-out: inhibited proliferation, 10 μg/ml, in the presence of 1 μg/ml MCC, 72 h, MTT): 100%
inhibition at 100 µg/mL ([1]; Mus musculus, B16, 72 h, read-out: inhibited proliferation, 100 μg/ml, agent alone, 72 h, MTT): 100%
IC50 ([1]; Mus musculus, read-out: IC50 (concentration for 50% inhibition of B-16 melanoma cell proliferation), Drug + MCC at 1 μg/ml): 0.005 µg/mL
IC50 ([1]; Mus musculus, read-out: IC50 (concentration for 50% inhibition of B-16 melanoma cell proliferation), Drug Alone): 0.12 µg/mL (≈ 0.923 µM)

CN(Cc1cnc2nc(N)nc(N)c2n1)c1ccc(C(=O)N[C@@H](CCC(=O)O)C(=O)O)cc1 [MTX, methotrexate]
PERCENTAGE OF CELLS IN EACH PHASE: G0G1 + SE [2]: 44.6% and 43.0%
PERCENTAGE OF CELLS IN EACH PHASE: SL + G2M [2]: 30.1% and 31.4%
PERCENTAGE OF CELLS IN EACH PHASE: SM [2]: 25.3% and 25.6%
PERCENTAGE OF CELLS IN EACH PHASE: G0G1 + SE [3]: 18.3%
PERCENTAGE OF CELLS IN EACH PHASE: SL + G2M [3]: 63.3%
PERCENTAGE OF CELLS IN EACH PHASE: SM [3]: 18.4%
PERCENTAGE OF CELLS IN EACH PHASE: G0G1 + SE [4]: 48.3%
PERCENTAGE OF CELLS IN EACH PHASE: SL + G2M [4]: 46.3%
PERCENTAGE OF CELLS IN EACH PHASE: SM [4]: 5.4%
PERCENTAGE OF CELLS IN EACH PHASE: G0G1 + SE [5]: 50.3%
PERCENTAGE OF CELLS IN EACH PHASE: SL + G2M [5]: 25.5%
PERCENTAGE OF CELLS IN EACH PHASE: SM [5]: 24.2%
PERCENTAGE OF CELLS IN EACH PHASE: G0G1 + SE [6]: 46.1%
PERCENTAGE OF CELLS IN EACH PHASE: SL + G2M [6]: 18.4%
PERCENTAGE OF CELLS IN EACH PHASE: SM [6]: 35.5%

N.N.[Cl][Pt][Cl] [cisplatin]
inhibited proliferation ([1]; 0.01 μg/ml, agent alone): 0%
inhibited proliferation ([1]; 0.01 μg/ml, in the presence of 1 μg/ml MCC): about 40%
inhibited proliferation ([1]; 0.1 μg/ml, agent alone): about 8%
inhibited proliferation [1, 8]: about 50%
inhibited proliferation ([1]; 1 μg/ml, agent alone): about 62%
inhibited proliferation [1, 9]: about 70%
inhibited proliferation ([1]; 10 μg/ml, agent alone): about 90%
inhibited proliferation ([1]; 10 μg/ml, in the presence of 1 μg/ml MCC): about 90%
inhibited proliferation ([1]; 100 μg/ml, agent alone): 100%
IC50 (concentration for 50% inhibition of B-16 melanoma cell proliferation), Drug + MCC at 1 μg/ml [1]: 0.16 µg/mL
IC50 (concentration for 50% inhibition of B-16 melanoma cell proliferation), Drug Alone [1]: 0.6 µg/mL

CO[C@@]12[C@H](COC(N)=O)C3=C(C(=O)C(C)=C(N)C3=O)N1C[C@@H]1N[C@@H]12 [mitomycin-C]
inhibited proliferation ([1]; 0.1 μg/ml, agent alone): about 5%
inhibited proliferation [1, 8]: about 40%
inhibited proliferation ([1]; 1 μg/ml, agent alone): about 10%
inhibited proliferation [1, 9]: about 65%
inhibited proliferation ([1]; 10 μg/ml, agent alone): 100%
inhibited proliferation ([1]; 100 μg/ml, agent alone): 100%
inhibited proliferation ([1]; 100 μg/ml, in the presence of 1 μg/ml MCC): 100%
IC50 (concentration for 50% inhibition of B-16 melanoma cell proliferation), Drug + MCC at 1 μg/ml [1]: 0.12 µg/mL
IC50 (concentration for 50% inhibition of B-16 melanoma cell proliferation), Drug Alone [1]: 2.2 µg/mL
tumor mass [7]: less tumor mass than Group 1 mice
